From PMC8221158, “Novel pyrrolizines bearing 3,4,5-trimethoxyphenyl moiety: design, synthesis, molecular docking, and biological evaluation as potential multi-target cytotoxic agents” (Journal of Enzyme Inhibition and Medicinal Chemistry, 2021)
Several values for one entry are separate records, joined by “and”; a condition that tells them apart may be missing. Identical values can stand only once.

What was measured:
A2780 = assay: MTT cell proliferation assay; assay type: cell-based, human; details: for IC50: Homo sapiens, A2780, MTT, 72 h treatment, n = 3, read-out: IC50 (µM ± SD) A2780; for Selectivity index A2780: IC50 MRC-5 / IC50 A2780
Description: (§1) MCF-7 (human breast adenocarcinoma), A2780 (human ovarian cancer) and HCT116 (human colorectal carcinoma), and MRC-5 (normal foetal lung fibroblast) cell lines were bought from the ATCC and were cultured in flasks which were incubated at 37 °C in an atmosphere of 5% CO2, 95% air, and 100% relative humidity, to maintain continuous logarithmic growth. MCF-7, A2780, and HCT116 were maintained in RPMI-1640 media (100 U/mL penicillin, 100 µg/mL streptomycin, and 10% foetal bovine serum, Gibco, Carlsbad, CA). MRC-5 cells were maintained in EMEM (100 U/mL penicillin, 100 µg/mL streptomycin, and 10% foetal bovine serum, Gibco, Carlsbad, CA). Doxorubicin (5 μg/mL, for three months) added for RPMI-1640 media containing MCF7 cells was used to develop doxorubicin-resistant MCF7/ADR cells. All cancer and normal cell lines were cultured according to our previous report. Cells were used within 10–20 passages and were checked for mycoplasma every 6 months, by measuring the bioluminescence (Myco Alert sample detection kit; Lonza, Basel, Switzerland) using the multiplate reader (Synergy HT, BioTek, Winooski, VT).
(§2) The MTT assay was used to measure the cytotoxicity and growth inhibitory activities and cytotoxicity of the new compounds according to our previous report[13]^,[17]. Cells from flasks of 70–80% confluency were separately seeded in 96-well flat-bottom microculture plates (Nalgene-Nunc, Thermo Fisher Scientific, Roskilde, Denmark) at a density of 3 × 10^3 cells (MCF-7, A2780, and MRC-5), 1 × 10^4 cells (HCT116), to a volume of 180 μL/well of culture medium. A Neubauer haemocytometer was used for cell counting. Cells were incubated at 37 °C overnight to allow attachment to the wells. The final concentrations of each compound in wells were: 0–50 μM in 200 μL of media (DMSO 0.1%). Lapatinib (Cayman, Ann Arbor, MI) was used as a positive control at the same final concentrations. Medium only (20 μL) was added to each control well, and each concentration was tested in triplicates (n = 3). Following incubation for 72 h, 50 μL MTT was added into each well. Plates were incubated for 3 h, the supernatant was aspirated, and 100 μL of DMSO was added to each well. The optical density (OD) of the purple formazan is proportional to the number of viable cells. […] GraphPad Prism version 5.00 for Windows was used for analysis (La Jolla, CA). Cytotoxicity of the new compounds was calculated after treatment of cancer/normal cell lines for 72 h. The absorbance of the reduced MTT was determined using a microplate reader A570 nm.
(§3) The cytotoxic activity of the new compounds (15a–e, 16a–e, 20, and 21) was evaluated in vitro using MTT assay. The MTT assay depends on the reduction of the yellow tetrazole dye (MTT) to the purple formazan by the active mitochondrial dehydrogenase enzymes indicating the viability of the cells which can be measured as OD. The new compounds were evaluated against three non-resistant cancer cell lines: MCF-7, and A2780 cell lines were selected to compare cytotoxicity of the new compounds with the previously reported results of compounds 9a,b[13]. Cytotoxicity of the new compounds was also evaluated also against HCT116 cells which lacks COX-2 protein[33]^,[34].

HCT116 = assay: MTT cell proliferation assay; assay type: cell-based, human; details: for IC50: Homo sapiens, HCT-116, MTT, 72 h treatment, n = 3, read-out: IC50 (µM ± SD) HCT116; for Selectivity index HCT116: IC50 MRC-5 / IC50 HCT116
Description: as §1, §2, §3

MCF-7 = assay: MTT cell proliferation assay; assay type: cell-based, human; details: for IC50: Homo sapiens, MCF7, MTT, 72 h treatment, n = 3, read-out: IC50 (µM ± SD) MCF-7; for Selectivity index MCF-7: IC50 MRC-5 / IC50 MCF-7
Description: as §1, §2, §3

[1] = tested on: MCF-7, HCT116, and A2780 cancer cell lines; assay: MTT assay, three cancer cell lines taken together (average, overall range); assay type: cell-based, human; details: Homo sapiens; MCF-7, HCT116, A2780; read-out: Average of the three IC50 values against the three cancer cell lines
Description: Cells from flasks of 70–80% confluency were separately seeded in 96-well flat-bottom microculture plates (Nalgene-Nunc, Thermo Fisher Scientific, Roskilde, Denmark) at a density of 3 × 10^3 cells (MCF-7, A2780, and MRC-5), 1 × 10^4 cells (HCT116), to a volume of 180 μL/well of culture medium. […] The final concentrations of each compound in wells were: 0–50 μM in 200 μL of media (DMSO 0.1%). Lapatinib (Cayman, Ann Arbor, MI) was used as a positive control at the same final concentrations. Medium only (20 μL) was added to each control well, and each concentration was tested in triplicates (n = 3). Following incubation for 72 h, 50 μL MTT was added into each well. Plates were incubated for 3 h, the supernatant was aspirated, and 100 μL of DMSO was added to each well. The optical density (OD) of the purple formazan is proportional to the number of viable cells. […] The absorbance of the reduced MTT was determined using a microplate reader A570 nm.

normal MRC-5 cells = assay: MTT assay, normal cells (cytotoxic selectivity); assay type: cell-based; details: Homo sapiens, MRC5, 72 h treatment, n = 3, read-out: IC50 (µM ± SD) MRC-5
Description: as §1, §2
Selectivity towards cancerous cells is one of the important issues which must be considered during the discovery and development of new anticancer agents. To assess the toxicity and selectivity of the new compounds (15a–e, 16a–e, 20, and 21), their growth inhibitory activities against normal human foetal lung fibroblast MRC-5 cells were evaluated using the MTT assay. […] The selectivity of the new compounds towards each of the three cancer cell lines was calculated by dividing their IC50 values against normal MRC-5 cells by their IC50 values against the corresponding cancer cell line (Table 3).

MCF-7 cells = assay: Cell cycle analysis (flow cytometry); assay type: cell-based, human; details: 0.1 μM, 24 h
Description: Cell cycle perturbations of MCF-7 cells treated with compounds 16a,b,d at 0.1 µM concentration for 24 h was determined using FC500 flow cytometer (FC500, Beckman Coulter, Miami, FL). The cell cycle analysis was performed according to our previous report.
Based on the results of the MTT assay (Table 1), compounds 16a,b,d were selected to investigate their effect on cell cycle phases of MCF-7 cells. The cancer cells were treated with the test compounds at 0.1 μM and vehicle (control) for 24 h according to the previous report. Cell cycle analysis was performed using FC500 flow cytometer (FC500, Beckman Coulter, Miami, FL). […] On the other hand, the S phase was the least affected with less than a twofold decrease.

CDK-2 = target: T1, CDK-2 (Homo sapiens, UniProt P24941); assay: CDK-2 inhibitory assay (ADP-Glo); assay type: biochemical; details: three determinations, read-out: IC50 (μM) ± SEM CDK-2
T1 construct: purchased Promega, Madison, WI
Description: The assay was done according to the manufacturer’s instructions and as described in the previous report[21].

EGFR = EGFR (Homo sapiens, UniProt P00533); assay: Kinase profiling test; assay type: biochemical; details: stated as inhibition, read-out: inhibition% against EGFR
Sequence of EGFR (P00533 25-1210): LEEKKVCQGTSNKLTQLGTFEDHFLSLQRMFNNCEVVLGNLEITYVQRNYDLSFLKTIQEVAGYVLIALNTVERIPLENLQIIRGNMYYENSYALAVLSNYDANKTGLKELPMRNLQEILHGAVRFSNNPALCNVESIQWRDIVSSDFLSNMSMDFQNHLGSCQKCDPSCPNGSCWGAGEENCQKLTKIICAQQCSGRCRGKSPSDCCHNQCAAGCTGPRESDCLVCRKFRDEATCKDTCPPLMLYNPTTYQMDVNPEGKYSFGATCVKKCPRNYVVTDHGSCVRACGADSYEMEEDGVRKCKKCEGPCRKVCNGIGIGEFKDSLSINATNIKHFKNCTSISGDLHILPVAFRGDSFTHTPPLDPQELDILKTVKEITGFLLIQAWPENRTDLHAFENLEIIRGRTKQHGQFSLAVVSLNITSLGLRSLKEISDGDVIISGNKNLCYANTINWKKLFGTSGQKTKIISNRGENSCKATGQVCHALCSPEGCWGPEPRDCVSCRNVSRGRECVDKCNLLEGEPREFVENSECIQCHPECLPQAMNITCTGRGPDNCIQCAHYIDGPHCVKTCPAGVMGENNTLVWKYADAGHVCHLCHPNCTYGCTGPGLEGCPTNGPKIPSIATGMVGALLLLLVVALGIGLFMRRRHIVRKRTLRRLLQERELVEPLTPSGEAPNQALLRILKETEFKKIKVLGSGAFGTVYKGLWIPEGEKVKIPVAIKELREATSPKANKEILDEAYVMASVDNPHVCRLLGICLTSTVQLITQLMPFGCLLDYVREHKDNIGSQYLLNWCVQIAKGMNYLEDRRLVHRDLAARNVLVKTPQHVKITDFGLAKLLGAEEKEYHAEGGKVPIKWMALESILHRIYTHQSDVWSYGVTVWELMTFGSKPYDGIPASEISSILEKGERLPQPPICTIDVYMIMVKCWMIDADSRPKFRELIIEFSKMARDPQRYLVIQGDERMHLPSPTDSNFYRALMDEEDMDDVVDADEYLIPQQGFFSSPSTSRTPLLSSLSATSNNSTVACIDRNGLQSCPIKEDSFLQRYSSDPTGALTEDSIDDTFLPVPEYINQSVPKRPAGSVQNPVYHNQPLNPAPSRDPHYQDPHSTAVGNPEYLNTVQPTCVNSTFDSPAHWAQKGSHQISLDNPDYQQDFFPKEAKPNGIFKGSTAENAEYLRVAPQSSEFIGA
Description: The test was performed using the radiolabeled ATP determination method (KINEXUS Bioinformatics Corporation, Vancouver, Canada). The test was performed following the previous reports[13]^,[20].
The three compounds were tested at the same concentration (10 μM) against the same 20 kinases used in the previous report. The test was performed by KINEXUS Bioinformatics Corporation (Vancouver, Canada), following previous reports[13]^,[20].

[2] = tested on: microtubule cytoskeleton of MCF-7 cells; assay: Immunofluorescence staining of microtubules; assay type: cell-based, human; details: 5 μM, 24 h

Row | SMILES | IC50 (A2780) [µM] | Selectivity index A2780 (A2780) | IC50 (HCT116) [µM] | Selectivity index HCT116 (HCT116) | IC50 (MCF-7) [µM] | Selectivity index MCF-7 (MCF-7) | IC50 [1] [nM] | IC50 (normal MRC-5 cells) [µM] | Cell cycle stage % G1 (MCF-7 cells) [%] | Cell cycle stage % G2/M (MCF-7 cells) | Cell cycle stage % S (MCF-7 cells) [%] | Cell cycle stage % preG1 (MCF-7 cells) | IC50 (CDK-2) [µM] | inhibition at 10 µM (EGFR) [%] | effect on cellular microtubules [2]
1 | COc1cc(C(=O)Nc2c(C#N)c3n(c2C(=O)Nc2ccccc2)CCC3)cc(OC)c1OC [16a, 7-Cyano-N-phenyl-6-(3,4,5-trimethoxybenzamido)-2,3-dihydro-1H-pyrrolizine-5-carboxamide] | 0.044 ± 0.01 | 3.52 | 0.135 ± 0.007 | 1.15 | 0.082 ± 0.002 | 1.89 | 87 | 0.155 ± 0.062 | 10.69 ± 1.32 | 37.38 ± 4.66% | 25.93 ± 3.47 | 26.92 ± 3.07% | 0.086 ± 0.016 | 30 | –
2 | COc1cc(C(=O)Nc2c(C#N)c3n(c2C(=O)Nc2ccc(C)cc2)CCC3)cc(OC)c1OC [16b, 7-Cyano-N-(p-tolyl)-6-(3,4,5-trimethoxybenzamido)-2,3-dihydro-1H-pyrrolizine-5-carboxamide] | 0.18 ± 0.043 | 32.51 | 0.092 ± 0.001 | 63.60 | 0.068 ± 0.009 | 86.04 | 113 | 5.85 ± 1.19 | 13.19 ± 2.95 | 35.35 ± 4.19% | 28.46 ± 2.79 | 22.43 ± 2.24% | 0.265 ± 0.021 | 11 | shrank and partially disorganised microtubules which split partially into fragments
3 | COc1cc(C(=O)Nc2c(C#N)c3n(c2C(=O)Nc2ccc(Cl)cc2)CCC3)cc(OC)c1OC [16d, N-(4-Chlorophenyl)-7-cyano-6-(3,4,5-trimethoxybenzamido) -2,3-dihydro-1H-pyrrolizine-5-carboxamide] | 0.03 ± 0.005 | 270.00 | 0.097 ± 0.001 | 83.51 | 0.071 ± 0.001 | 114.08 | 66 | 8.1 ± 0.897 | 5.46 ± 0.87 | 45.62% and 45.62 ± 5.25% | 24.92 ± 2.22 | 27.56% and 27.56 ± 3.93% | 0.113 ± 0.017 | – | –
